Measured values published in ChEMBL document CHEMBL1201862, “PubChem BioAssay data set” (2004).
Active and inactive are the calls of the source.

Assays:
[1] = biological target: T1, Microphthalmia-associated transcription factor (Homo sapiens, UniProt O75030); experiment: reducers of TRPM1 reporter luminescence, concentration series – cell-based, SK-MEL-5, cherry-picked, set 3, MITF inhibitor project, dose response (AID 493073); format: functional;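 also: SK-MEL-5 melanoma cells with luciferase driven by the MITF target TRPM1 promoter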
T1 sequence (O75030 whole entry): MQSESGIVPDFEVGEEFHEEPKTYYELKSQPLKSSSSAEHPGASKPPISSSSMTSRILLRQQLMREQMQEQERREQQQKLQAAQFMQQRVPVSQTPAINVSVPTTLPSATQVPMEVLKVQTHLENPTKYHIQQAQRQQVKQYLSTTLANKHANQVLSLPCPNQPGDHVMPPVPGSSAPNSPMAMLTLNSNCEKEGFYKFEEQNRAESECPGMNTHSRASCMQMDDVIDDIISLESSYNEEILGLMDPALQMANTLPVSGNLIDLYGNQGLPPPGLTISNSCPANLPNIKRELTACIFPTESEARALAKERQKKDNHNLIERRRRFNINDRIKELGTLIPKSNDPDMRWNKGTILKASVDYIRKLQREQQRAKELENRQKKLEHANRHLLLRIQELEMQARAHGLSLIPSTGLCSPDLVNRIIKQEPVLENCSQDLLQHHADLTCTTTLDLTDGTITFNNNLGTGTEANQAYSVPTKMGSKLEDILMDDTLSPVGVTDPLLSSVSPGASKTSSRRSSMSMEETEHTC

[2] = biological target: Glycogen synthase kinase-3 alpha (Homo sapiens, UniProt P49840); experiment: Inhibition of Human GSK-3 alpha Activity Measured in Biochemical System Using Microfluidics - 2063-06_Inhibitor_Dose_DryPowder_Activity. [Related pubchem assays (depositor defined):AID2709]
Glycogen synthase kinase-3 alpha, sequence (P49840 whole entry): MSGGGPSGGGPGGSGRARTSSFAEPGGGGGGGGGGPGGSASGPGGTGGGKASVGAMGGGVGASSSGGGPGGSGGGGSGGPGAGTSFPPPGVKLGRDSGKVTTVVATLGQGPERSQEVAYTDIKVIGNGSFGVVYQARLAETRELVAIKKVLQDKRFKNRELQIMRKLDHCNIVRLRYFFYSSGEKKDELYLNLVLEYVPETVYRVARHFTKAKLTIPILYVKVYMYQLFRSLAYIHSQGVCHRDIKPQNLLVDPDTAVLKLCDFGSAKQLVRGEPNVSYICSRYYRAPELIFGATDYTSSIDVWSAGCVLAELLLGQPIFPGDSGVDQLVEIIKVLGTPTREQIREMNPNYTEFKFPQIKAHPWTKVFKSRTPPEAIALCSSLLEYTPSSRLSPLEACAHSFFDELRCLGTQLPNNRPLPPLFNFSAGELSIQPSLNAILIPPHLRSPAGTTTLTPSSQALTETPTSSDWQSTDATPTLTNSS

[3] = THP-1 cell cytotoxicity, dose response, cytotoxicity control for non-replicating M. tuberculosis project (AID 489025); format: functional
[4] = HepG2 cell cytotoxicity, dose response, cytotoxicity control for non-replicating M. tuberculosis project (AID 489018); format: functional; conditions: Mycobacterium tuberculosis
[5] = biological target: Glycogen synthase kinase-3 beta (Homo sapiens, UniProt P49841); experiment: Inhibition of Human GSK-3 beta Activity Measured in Biochemical System Using Microfluidics - 2063-05_Inhibitor_Dose_DryPowder_Activity. [Related pubchem assays (depositor defined):AID2709]
Glycogen synthase kinase-3 beta, sequence (P49841 whole entry): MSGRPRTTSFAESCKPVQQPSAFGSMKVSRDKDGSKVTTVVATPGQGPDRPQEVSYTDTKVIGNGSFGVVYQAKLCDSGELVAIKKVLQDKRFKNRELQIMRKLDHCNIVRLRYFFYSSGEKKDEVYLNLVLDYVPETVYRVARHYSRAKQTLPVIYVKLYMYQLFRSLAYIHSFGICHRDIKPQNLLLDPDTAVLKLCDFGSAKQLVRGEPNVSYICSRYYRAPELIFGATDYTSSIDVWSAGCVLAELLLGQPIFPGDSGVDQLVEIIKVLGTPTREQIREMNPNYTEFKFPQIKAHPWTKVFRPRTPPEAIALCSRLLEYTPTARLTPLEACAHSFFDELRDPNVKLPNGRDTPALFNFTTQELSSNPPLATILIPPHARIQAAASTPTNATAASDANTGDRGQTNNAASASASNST

[6] = Vero E6 cell cytotoxicity, dose response, cytotoxicity control for non-replicating M. tuberculosis project, secondary assay (AID 492998); format: functional, VeroE6; conditions: Vero C1008
cells = format: functional
[7] = biological target: Nuclear receptor subfamily 0 group B member 1 (Homo sapiens, UniProt P51843); experiment: Luminescence-based cell-based high throughput dose response assay for inhibitors of the orphan nuclear receptor subfamily 0, group B, member 1 (DAX1; NR0B1). [Related pubchem assays (depositor defined):AID504766, AID504790]; format: functional
Nuclear receptor subfamily 0 group B member 1, sequence (P51843 whole entry): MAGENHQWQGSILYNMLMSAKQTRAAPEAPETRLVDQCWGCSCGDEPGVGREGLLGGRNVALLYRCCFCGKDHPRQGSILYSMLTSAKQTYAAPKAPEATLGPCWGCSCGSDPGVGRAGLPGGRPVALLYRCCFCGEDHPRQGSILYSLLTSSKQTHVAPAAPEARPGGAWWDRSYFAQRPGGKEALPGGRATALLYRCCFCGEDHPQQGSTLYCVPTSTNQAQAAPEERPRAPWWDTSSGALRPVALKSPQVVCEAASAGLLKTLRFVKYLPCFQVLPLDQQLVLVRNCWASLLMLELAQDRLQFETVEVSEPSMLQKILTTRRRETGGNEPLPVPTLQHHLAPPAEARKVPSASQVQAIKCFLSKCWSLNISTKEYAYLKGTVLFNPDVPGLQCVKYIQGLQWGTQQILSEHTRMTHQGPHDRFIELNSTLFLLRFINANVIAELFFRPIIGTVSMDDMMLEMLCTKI

HEK293 [8] = experiment: cells; format: functional, cell-based; conditions: Homo sapiens
A-375 [9] = experiment: MITF: Counter assay: A375 proliferation Measured in Cell-Based System Using Plate Reader - 2084-03_Inhibitor_Dose_DryPowder_Activity. [Related pubchem assays (depositor defined):AID488944]; format: functional; conditions: Homo sapiens
Protein RecA = biological target: T2, Protein RecA (Mycobacterium tuberculosis, UniProt P9WHJ3); experiment: Fluorescence Cell-Free Homogeneous Dose Retest to Identify Inhibitors of RecA-Intein Splicing Activity. [Related pubchem assays (depositor defined):AID2097, AID2223, AID489010, AID492950]; format: functional
T2 sequence (P9WHJ3 whole entry): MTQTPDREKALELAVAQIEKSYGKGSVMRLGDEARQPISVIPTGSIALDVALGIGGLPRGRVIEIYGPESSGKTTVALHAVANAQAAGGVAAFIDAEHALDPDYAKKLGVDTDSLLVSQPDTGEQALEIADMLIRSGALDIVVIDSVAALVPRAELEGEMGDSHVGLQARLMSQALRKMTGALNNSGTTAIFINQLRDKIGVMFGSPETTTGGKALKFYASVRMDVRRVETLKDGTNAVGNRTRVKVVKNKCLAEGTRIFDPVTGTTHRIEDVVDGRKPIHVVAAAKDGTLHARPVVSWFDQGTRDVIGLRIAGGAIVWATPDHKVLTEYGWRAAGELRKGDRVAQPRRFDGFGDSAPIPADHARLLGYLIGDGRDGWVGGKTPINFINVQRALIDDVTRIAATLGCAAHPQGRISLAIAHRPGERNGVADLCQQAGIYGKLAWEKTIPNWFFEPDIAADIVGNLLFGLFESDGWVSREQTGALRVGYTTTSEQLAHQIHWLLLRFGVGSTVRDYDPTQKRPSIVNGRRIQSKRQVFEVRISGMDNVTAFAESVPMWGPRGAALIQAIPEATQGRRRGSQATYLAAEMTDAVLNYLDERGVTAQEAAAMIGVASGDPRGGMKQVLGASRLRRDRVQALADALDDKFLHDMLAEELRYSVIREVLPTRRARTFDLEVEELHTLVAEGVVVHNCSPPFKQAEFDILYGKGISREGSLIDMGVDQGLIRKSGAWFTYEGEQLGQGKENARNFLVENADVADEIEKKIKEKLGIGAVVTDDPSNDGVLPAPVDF

[10] = DRD fibroblast viability loss – cell-based, non-viral oncogenic, luminescence, dose response (AID 1934); format: functional; conditions: Homo sapiens
BJ [11] = experiment: BJ-TERT fibroblast viability loss – cell-based, RAS-independent, luminescence, dose response (AID 1933); format: functional; conditions: Homo sapiens
[12] = biological target: T3, Replicative DNA helicase DnaB (Mycobacterium tuberculosis, UniProt P9WMR3); experiment: DnaB intein splicing inhibitors, dose response, biochemical, cell-free fluorescence (AID 449749); format: functional
T3 sequence (P9WMR3 whole entry): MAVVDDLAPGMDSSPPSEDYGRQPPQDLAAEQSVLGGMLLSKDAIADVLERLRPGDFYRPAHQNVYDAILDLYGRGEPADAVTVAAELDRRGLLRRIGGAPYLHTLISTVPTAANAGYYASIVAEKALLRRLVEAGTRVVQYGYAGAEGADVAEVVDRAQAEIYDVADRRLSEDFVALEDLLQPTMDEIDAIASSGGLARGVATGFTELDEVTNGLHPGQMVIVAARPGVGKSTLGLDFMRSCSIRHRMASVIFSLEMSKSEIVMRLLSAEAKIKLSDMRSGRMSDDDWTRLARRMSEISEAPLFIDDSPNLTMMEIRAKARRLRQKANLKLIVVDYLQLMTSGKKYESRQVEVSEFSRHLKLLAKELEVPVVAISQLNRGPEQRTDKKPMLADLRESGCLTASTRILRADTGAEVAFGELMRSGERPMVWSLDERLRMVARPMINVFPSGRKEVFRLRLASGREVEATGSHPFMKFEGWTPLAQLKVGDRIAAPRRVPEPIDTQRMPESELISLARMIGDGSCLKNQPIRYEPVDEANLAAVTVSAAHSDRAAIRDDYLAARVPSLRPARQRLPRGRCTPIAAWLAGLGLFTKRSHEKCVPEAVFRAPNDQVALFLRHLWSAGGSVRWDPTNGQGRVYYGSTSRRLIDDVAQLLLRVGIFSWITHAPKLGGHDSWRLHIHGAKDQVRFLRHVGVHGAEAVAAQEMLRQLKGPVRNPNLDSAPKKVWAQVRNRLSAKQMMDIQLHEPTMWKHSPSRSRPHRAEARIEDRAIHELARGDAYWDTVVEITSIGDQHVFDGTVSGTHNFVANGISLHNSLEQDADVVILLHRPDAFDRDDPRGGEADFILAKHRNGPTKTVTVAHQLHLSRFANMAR

BJ [13] = experiment: cells; format: functional, cell-based; conditions: Homo sapiens
BJ [14] = experiment: BJ-TERT-LT-ST fibroblast viability loss – cell-based, RAS-independent, luminescence, dose response (AID 1935); format: functional; conditions: Homo sapiens;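 also: BJ fibroblasts immortalized with TERT plus LT and ST oncogenes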
A-375 [15] = experiment: proliferation inhibition in MITF-low A375 cells – cell-based, cherry-pick samples, set 2, counter-screen for MITF modulator project, dose response (AID 540335); format: functional; conditions: Homo sapiens
[16] = biological target: Beta-2 adrenergic receptor (Homo sapiens, UniProt P07550); experiment: ADRB2 activation measured by internalization – cell-based, FAP fluorogen, flow cytometry, cherry pick 1, dose response (AID 588763); format: functional
Beta-2 adrenergic receptor, sequence (P07550 whole entry): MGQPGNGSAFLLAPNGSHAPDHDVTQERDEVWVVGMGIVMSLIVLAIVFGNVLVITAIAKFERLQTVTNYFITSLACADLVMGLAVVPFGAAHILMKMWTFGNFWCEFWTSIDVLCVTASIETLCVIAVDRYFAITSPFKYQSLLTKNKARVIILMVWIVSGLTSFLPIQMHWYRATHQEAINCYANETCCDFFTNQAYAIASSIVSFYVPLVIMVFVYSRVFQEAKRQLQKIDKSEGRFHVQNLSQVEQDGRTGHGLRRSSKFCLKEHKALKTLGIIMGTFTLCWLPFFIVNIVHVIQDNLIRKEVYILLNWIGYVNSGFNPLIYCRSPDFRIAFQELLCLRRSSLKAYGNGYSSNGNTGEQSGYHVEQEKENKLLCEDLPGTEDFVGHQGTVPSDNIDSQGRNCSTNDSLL

HEK293 [17] = experiment: SAR Analysis of small molecule inhibitors of T-cell specific antigen receptor-induced NF-kB activation in a HEK-293T cell line using a luminescence assay - Set 2. [Related pubchem assays (depositor defined):AID435003, AID435012, AID489026]; format: functional, cell-based; conditions: Homo sapiens
Jurkat = experiment: SAR Analysis of small molecule inhibitors of T-cell specific antigen receptor-induced NF-kB activation in a Jurkat cell line using a luminescence assay - Set 2. [Related pubchem assays (depositor defined):AID435003, AID435012, AID465]; format: functional, cell-based; conditions: Homo sapiens
HEK293 [18] = experiment: HEK293T cell viability loss, resazurin readout – resazurin fluorescence, cytotoxicity control for NF-kB activator project, SAR follow-up (AID 493251); format: functional, cell-based; conditions: Homo sapiens
[19] = blockers of HIV-1 envelope-mediated cell-cell fusion – cherry-pick, dose response (AID 652057); format: functional, cell-based
[20] = blockers of HIV-1 ZM109 envelope-driven cell-cell fusion – HeLa effector, CEM target cells, luciferase, cherry-pick, dose response (AID 652058); format: functional, cell-based;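 also: luciferase signal from HIV-1 Env mediated cell-cell fusion of effector and target cells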
[21] = off-target signal loss in HeLa-CEM21 co-culture – HeLa F-luc CTL cells, cherry-picked, counter-screen for HIV-1 Env fusion inhibitor project, dose response (AID 652040); format: functional, cell-based;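 also: potency for signal decrease marking cytotoxic or nonspecific inhibition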
Beta-galactosidase = Beta-galactosidase (Escherichia coli, UniProt Q8VNN2); experiment: PubChem AID 485352; format: functional
Beta-galactosidase, sequence (Q8VNN2 whole entry): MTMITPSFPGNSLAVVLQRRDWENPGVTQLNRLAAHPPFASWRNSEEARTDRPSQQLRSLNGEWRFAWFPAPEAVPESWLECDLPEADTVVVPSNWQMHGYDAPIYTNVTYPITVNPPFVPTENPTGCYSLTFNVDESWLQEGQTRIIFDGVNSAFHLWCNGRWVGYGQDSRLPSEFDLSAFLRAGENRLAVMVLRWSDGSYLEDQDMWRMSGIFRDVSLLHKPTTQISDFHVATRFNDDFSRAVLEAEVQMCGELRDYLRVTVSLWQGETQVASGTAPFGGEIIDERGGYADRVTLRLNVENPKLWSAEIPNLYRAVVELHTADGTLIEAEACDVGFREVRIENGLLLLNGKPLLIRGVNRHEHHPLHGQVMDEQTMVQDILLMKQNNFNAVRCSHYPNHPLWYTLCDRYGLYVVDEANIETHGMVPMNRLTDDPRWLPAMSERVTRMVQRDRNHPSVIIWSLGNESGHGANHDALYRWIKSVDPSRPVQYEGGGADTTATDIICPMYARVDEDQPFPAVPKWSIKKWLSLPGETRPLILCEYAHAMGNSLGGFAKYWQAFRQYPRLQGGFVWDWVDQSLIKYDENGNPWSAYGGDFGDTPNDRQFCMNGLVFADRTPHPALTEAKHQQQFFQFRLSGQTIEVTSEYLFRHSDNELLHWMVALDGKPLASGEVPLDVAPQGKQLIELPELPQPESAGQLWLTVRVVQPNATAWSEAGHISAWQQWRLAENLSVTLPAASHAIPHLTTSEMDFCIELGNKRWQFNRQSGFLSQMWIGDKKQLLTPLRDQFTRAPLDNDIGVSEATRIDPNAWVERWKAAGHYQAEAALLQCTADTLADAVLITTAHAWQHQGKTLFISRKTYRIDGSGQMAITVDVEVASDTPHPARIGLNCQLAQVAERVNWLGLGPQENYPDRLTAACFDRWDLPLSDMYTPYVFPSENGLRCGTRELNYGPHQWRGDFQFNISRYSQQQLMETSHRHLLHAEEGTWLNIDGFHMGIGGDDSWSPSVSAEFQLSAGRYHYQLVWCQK

[22] = biological target: Type-1 angiotensin II receptor (Homo sapiens, UniProt P30556); experiment: antagonism of angiotensin II type 1 receptor – cell-based, uHTS hits, selectivity assay for APJ receptor antagonist project, dose response (AID 463214); format: functional;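 also: antagonist potency against angiotensin II stimulated AT1 response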
Type-1 angiotensin II receptor, sequence (P30556 whole entry, the tested form may be a part): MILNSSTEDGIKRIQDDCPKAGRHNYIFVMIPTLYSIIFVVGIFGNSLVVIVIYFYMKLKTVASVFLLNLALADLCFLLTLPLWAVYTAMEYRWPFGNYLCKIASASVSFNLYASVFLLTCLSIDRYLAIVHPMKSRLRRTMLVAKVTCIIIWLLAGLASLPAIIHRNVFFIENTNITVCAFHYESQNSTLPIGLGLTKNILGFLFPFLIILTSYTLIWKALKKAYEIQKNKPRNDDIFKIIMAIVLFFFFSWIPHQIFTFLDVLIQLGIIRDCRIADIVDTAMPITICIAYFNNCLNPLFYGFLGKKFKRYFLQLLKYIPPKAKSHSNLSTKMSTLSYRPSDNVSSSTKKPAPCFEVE

[23] = HIV-1 AD8 envelope cell-cell fusion blockers – cherry-pick, dose response (AID 652062); format: functional, cell-based;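 also: luciferase signal from cell-cell fusion driven by HIV-1 clade B AD8 Env; potency is for inhibitors of fusion seen as a drop in luminescence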

SMILES: O=C1Nc2cc(C(=O)NCCN3CCCCCC3)ccc2S/C1=C\c1ccccc1
- AC50 [1]: 9.78 µM (active)
- AC50 [2]: 63.7 µM (active)
- CC50 [3]: 6.89 µM (active)
- CC50 [4]: 12.1 µM (active)
- AC50 [5]: 2.29 µM (active)
- CC50 [6]: 12.5 µM (active)
- IC50 (cells): 37.8 µM (active)

SMILES: c1ccc(N2CCN(c3ccccc3)C2c2cccs2)cc1
- IC50 [7]: > 67.5 µM (inactive)
- IC50 (HEK293 [8]): > 67.5 µM (inactive)

SMILES: Cc1c(C#N)c(NC(=O)CCl)n(Cc2ccc(F)cc2)c1C
- AC50 [1]: 7.16 µM (active)
- AC50 (A-375 [9]): > 35 µM (active)
- EC50 (Protein RecA): 4.23 µM (active)
- EC50 [10]: 12.1 µM (active)
- EC50 (BJ [11]): 1.88 µM (inconclusive)
- AC50 [12]: 15.2 µM (active)
- EC50 (BJ [13]): > 150 µM (inconclusive)
- EC50 (BJ [14]): 16.7 µM (active)
- AC50 (A-375 [15]): > 35 µM (active)

SMILES: CN(CCOc1ccc(-c2ccn(S(=O)(=O)c3cccc4ccccc34)n2)cc1)c1ccccn1
- EC50 [16]: 2.53 µM (active)

SMILES: NS(=O)(=O)c1ccc(NC(=O)c2ccc([N+](=O)[O-])o2)cc1
- IC50 (HEK293 [17]): 20.5 µM (inactive)
- IC50 (Jurkat): 17.4 µM (active)
- IC50 (HEK293 [18]): 71.3 µM (inactive)

SMILES: O=C(CNc1ccc(F)cc1)c1ccccc1
- AC50 [19]: 1.54 µM (active)
- AC50 [20]: 1.17 µM (active)
- AC50 [21]: 1.57 µM (active)
- EC50 (Beta-galactosidase): > 40 µM (inactive)
- IC50 [22]: 7.06 µM (active)
- AC50 [23]: 4.61 µM (active)
